Results on four molecules are retold here after patent publication US20210348164A1, “ENDOGENOUS CYTOPLASMIC ALU COMPLEMENTARY DNA IN AGE-RELATED MACULAR DEGENERATION” (University of Virginia Patent Foundation, priority 2018, published 2021).

Entries after “also recorded” stand apart in the source; their conditions may differ.

Series [1] relates to Alu RNA-induced RPE degeneration. The experiment in a line: Alu RNA-induced RPE degeneration in wild-type mice (fundus photography, ZO-1 flat mounts). Format: in vivo, mouse. As to conditions: WT mice. The procedure:
Assessment of RPE degeneration. Subretinal injections were performed as previously described (Kaneko et al., 2011; Tarallo et al., 2012; Kerur et al., 2013; Fowler et al., 2014; Kim et al., 2014). Seven days after subretinal injection, RPE health was assessed by fundus photography and immunofluorescence staining of zonula occludens-1 (ZO-1) on RPE flat mounts (whole mount of posterior eye cup containing RPE and choroid layers). Mouse RPE/choroid flat mounts were fixed with 2% paraformaldehyde, stained with rabbit polyclonal antibodies against mouse ZO-1 (1:100; Invitrogen Corp. Carlsbad, Calif., United States of America) and visualized with Alexa-594 (Invitrogen Corp.). All images were obtained by microscopy (Model SP-5 (Leica Microsystems, Inc., Buffalo Grove, Ill., United States of America) or Nikon MR confocal microscope system (Nikon Instruments Inc. Melville, N.Y., United States of America). Imaging was performed by an operator blinded to the group assignments.
Quantification of RPE degeneration. Quantification of RPE degeneration was performed using two methodologies (binary assignment and cellular morphometry) as described previously (Kerur et al., 2018): Binary assignment (healthy versus unhealthy; Kerur et al., 2013; Fowler et al., 2014; Kim et al., 2014; Kerur et al., 2018) was independently performed by two blinded raters (inter-rater agreement=99.7%; Pearson r2=0.986, P<0.0001; Fleiss x=0.993, P<0.0001). Quantifying cellular morphometry for hexagonally packed cells was performed in semi-automated fashion by three masked graders by adapting our previous analysis of the planar architecture of corneal endothelial cell density (Ach et al., 2015), which resembles the RPE in its polygonal tessellation. Polymegethism (coefficient of variation of cell size), a prominent geometric feature of RPE cells in GA (Kaneko et al., 2011; Dridi et al., 2012; Grossniklaus et al., 2013; Ach et al., 2015), was quantified using the Konan Cell Check software (Ver. 4.0.1), a commercial U.S. FDA-cleared software that has been used for registration clinical trials, as previously described (Kerur et al., 2018).
Subretinal and intravitreous injections. Subretinal injections (1 μl for mice, 3 μl for rat) or intravitreous injections (0.5 μl for mice, 2 μl for rat) in mice or rat were performed using a 35-gauge needle (Ito Co. Fuji, Japan). In vivo transfection of Alu RNA or mutant Alu RNA (3.6-300 ng per eye); Alu complementary DNA (cDNA; 0.0036-90 ng per eye); Alu reverse sequence cDNA (3.6-90 ng per eye); or 7SL cDNA (3.6-90 ng per eye) was performed using 10% NEUROPORTER™ transfection reagent (Genlantis, San Diego, Calif., United States of America) as previously described (Kaneko et al., 2011; Tarallo et al., 2012). […]

For series [2] the test system is unchanged. The series is described as above. Format: in vivo, mouse. As to conditions: WT mice; intravitreous; low (25 μmol) doses.
The mark [3] stands for this setting: intravitreous, high (500 μmol) doses.

With `CC(C)Nc1cccnc1N1CCN(C(=O)c2cc3cc(NS(C)(=O)=O)ccc3[nH]2)CC1` [DLV, delavirdine], the figures for the “Alu RNA-induced RPE degeneration” value in series [1] (setting [3]) and in series [2] were “blocked Alu RNA toxicity; also recorded: inhibited” and “did not block Alu RNA-induced RPE degeneration at low doses”, respectively.
For `O=C1Nc2ccc(Cl)cc2[C@@](C#CC2CC2)(C(F)(F)F)O1` [EFV, efavirenz] the same measures were “blocked Alu RNA toxicity; also recorded: inhibited” and “did not block Alu RNA-induced RPE degeneration at low doses”.
For `Cc1ccnc2c1NC(=O)c1cccnc1N2C1CC1` [NVP, nevirapine] the same measures were “did not prevent Alu RNA-induced RPE degeneration at low or high doses” and “did not prevent Alu RNA-induced RPE degeneration at low or high doses”.
On to “L1 siRNA: siRNA targeting L1; cholesterol-conjugated mouse L1 siRNA (SEQ ID NOs: 48 and 49) in vivo, human L1 siRNA sequences in human cells (chain 1 ACUAUUACUCUGAUACCTT; chain 2 UGUACUAAGGUCAAAUCTT; cholesterol conjugated, position not given here)”, for which the “Alu RNA-induced RPE degeneration” value in series [1] (subretinal cholesterol-conjugated L1 siRNA vs control siRNA) is given as “prevented Alu RNA-induced RPE degeneration in wild-type mice; also recorded: blocked Alu RNA induced RPE degeneration”.
